“Also recorded” adds a separate entry of the source.
How the values were obtained:
[1] = Polymorph stability in poloxamer-based formulation (XRPD); assay type: physicochemical; details: for conversion of polymorphic form A into polymorphic form B: XRPD
Method: In a series of experiments, the polymorph stability has been analyzed. Micronized (≤20 μm) polymorphs A and B were added to phosphate buffer containing a non-ionic tenside as vehicle formulation. […]
2 mL of poloxamer based formulation with 12 mg/ml 6-FMC were cooled to 4° C., vortexed and transferred into a 2 mL Eppendorf vial. The cooled vial was centrifuged for 2 min with a table-centrifuge, the supernatant polymer solution was removed with a pipette and discarded. The remaining 6-FMC was resuspended and vortexed with 1.5 mL of ice cold milli-Q water and centrifuged down as described before. The supernatant water was again removed with a pipette and the washing procedure is repeated 3 times (in total 4 washings). Note: Keep the solution cool to facilitate the centrifugation process. After the last washing, the remaining white 6-FMC is cooled with liquid nitrogen and freeze dried overnight at 100 Pa at room temperature.
After 30 hours in formulation 60% of polymorphic form A is converted into polymorphic form B (see FIG. 10). Keeping the formulation for 48 hours or longer results in 100% conversion of polymorphic form A into polymorphic form B as shown in FIG. 11.

[2] = test system: noise induced hearing loss model (NIHL) in guinea pigs; assay: Noise induced hearing loss (NIHL) guinea pig model, intratympanic application, PTS by BERA; assay type: in vivo; details: single intratympanic 0.12 mg; for level of improvement of the PTS: across investigated frequencies (FIG. 13 / FIG. 14)
Method: The effect of an intratympanic administration of polymorph A of 6-FMC (0.12 mg) prepared freshly (less than 24 h before use) on the Permanent Threshold Shift has been investigated in guinea pigs (FIG. 13). The Permanent Threshold Shift (PTS) is defined as the difference between the post-traumatic hearing threshold measured on day 14 and the baseline hearing threshold measured on day −3.
Furthermore, the effect of an intratympanic administration of polymorph B of 6-FMC (0.12 mg) prepared at least 48 h before use, on the PTS in guinea pigs is presented in FIG. 14.
General procedures: All in vivo proof of principle studies were performed in the well-established guinea pig model of NIHL. […] Hearing function was assessed by brain evoked response audiometry (BERA).
Methods: Adult guinea pigs received an intratympanic (i.t.) injection of either 6-FMC formulated in a thermosensitive hydrogel or hydrogel alone. All procedures were performed under anesthesia. BERA was used to measure auditory brainstem responses (ABRs) on day −3 and day 14. The auditory stimuli were sinus tones (10 ms duration at 4, 8, 16 kHz) at 5 dB steps from 0-90 dB. These measurements were used to calculate the PTS. The acoustic trauma was performed on day 0 and consisted of a single continuous band (quarter-octave centered at 8 kHz) at 118 dB SPL for 30 min. Animals were treated 1 h after the end of the acoustic exposure. The round window was visualized under a surgical microscope via a small hole drilled in the bone of the bulla of the left ear. 10 μL of gel containing either 6-FMC or vehicle was injected using a Hamilton syringe and a motorized pump onto the round window membrane (RWM) before the hole was closed with dental cement.
Formulation preparation: a non-ionic tenside based solution is prepared in advance, by dissolving an appropriate amount of the non-ionic tenside in water or in PBS buffer and allowing for an overnight mixing under refrigerated conditions. Once the non-ionic tenside is completely dissolved, osmolality and pH are adjusted if desired. Next the solution is filtered through a 500 μm sieve to remove undissolved gel particles. This concludes compounding of the vehicle. API (Active Pharmaceutical Ingredient) containing formulation is prepared by addition of micronized 6-FMC (≤50 μm) at a concentration of 12 mg/mL. For experiments presented in FIG. 13, 6-FMC formulation was applied directly after being prepared. For experiments in FIG. 14, 6-FMC formulation was prepared at least 48 h prior to animal experiments.

[3] = Polymorph conversion under various thermal conditions (polymorph B to polymorph A), XRPD; assay type: physicochemical
Method: 3-1: Polymorph B of 6-FMC was dissolved in n-heptane, the suspension was heated (100° C.) for 1:45 h under stirring. Then the suspension was cooled and stirred at room temperature for 15 hrs. The precipitate was filtered, washed with n-heptane and dried by air.
3-2: Polymorph B of 6-FMC was diluted in toluene and heated up to 95° C. and cooled down to room temperature. The precipitate was filtered, washed with toluene and dried in an air stream.
3-3: A suspension of polymorph B of 6-FMC was diluted in n-heptane and heated up to 110° C. It was kept for 5 hrs 18 min in a flask under reflux conditions, followed by gentle cooling down to room temperature, stirred for 16 hrs. The precipitate was filtered, washed with heptane and dried by air.
3-4: A suspension of polymorph B of 6-FMC was diluted in n-heptane and heated up to 108° C. until the substance was completely diluted. Seed crystals of polymorph A were added to the solution which was gentle cooled down to room temperature. The precipitate was filtered, washed with n-heptane and dried by air.

[4] = Polymorph conversion using supercritical CO2; assay type: physicochemical; details: 60° C., 350 bar (35 MPa), 2.5 h
Method: Extraction/polymorph conversion with supercritical CO2 was performed with 500 mg of crude, off-white polymorph B in an ExtrateX Rapid Expansion of a Supercritical Solution (REES) system. The extraction vessel was heated to 60° C. with a pressure of 350 bar. The nozzle was a stainless-steel capillary 5 cm length, inner diameter 0.25 mm at 70° C. The expansion vessel was heated to 40° C. at 1-5 Mpa. Equilibration time: 2.5 h; spraying-time: 15 min.
The cylinder of the apparatus in which the supercritical CO2 had been introduced was loaded with polymorph B (FIG. 9A) and heated to 60° C. and a pressure of 35 MPa. The time amounted to 2.5 hrs during which the API dissolved completely in the supercritical CO2.

[5] = Melting/cooling and vacuum sublimation of polymorph powders; assay type: physicochemical
Method: The polymorph B sample melted at ˜123° C. […] (FIG. 6B).

[6] = Polymorph stability under manufacturing processes; assay type: physicochemical; details: drying, milling, micronization, wet granulation, spray-drying, compaction
Source text: Various dissolution/crystallization conditions have been applied to try to convert polymorph B into polymorph A. As mentioned above, only with sophisticated procedures polymorph B could be fully converted into polymorph A (Example 4). Polymorphic forms of a drug substance can undergo phase conversion when exposed to a range of manufacturing processes, such as drying, milling, micronization, wet granulation, spray-drying, and compaction. Exposure to environmental conditions such as humidity and temperature can also induce polymorph conversion. Therefore, polymorph A is unstable and thus not suited for pharmaceutical processes, while polymorph B was stable under all these conditions including drying, milling, micronization, wet granulation, spray-drying, and compaction.

[7] = day 14 vs day -3, listed as polymorphic form B
[8] = day 14 vs day -3, listed as polymorphic form A

Compound | polymorph conversion in formulation ([1]; initially introduced polymorph B, after 30 h in formulation) | polymorph conversion in formulation ([1]; sample initially made from polymorph B, regular intervals over several months) | PTS at some frequencies ([2]; 4 and 8 kHz (FIG. 14)) | level of improvement of the PTS ([2]; listed as polymorphic form B) | average PTS (threshold shift) in treated animals [2, 7] [dB] | average PTS reduction versus vehicle-treated controls [2, 7] [dB] | conversion of polymorph B into form A (XRPD) ([3]; 3-1: n-heptane, 100° C. for 1:45 h, then room temperature 15 hrs) | conversion of polymorph B into form A (XRPD) ([3]; 3-2: toluene, heated to 95° C., cooled to room temperature, not reproducible) | conversion of polymorph B into form A (XRPD) ([3]; 3-3: n-heptane, 110° C., reflux 5 hrs 18 min, cooled, stirred 16 hrs) | conversion of polymorph B into form A (XRPD) ([3]; 3-4: n-heptane, 108° C., seed crystals of polymorph A added, cooled to room temperature) | polymorph conversion in supercritical CO2 [4] | polymorph conversion in the melt (diffractometry) ([5]; depending on duration of the melting status) | polymorph conversion on vacuum sublimation ([5]; vacuum sublimation at 1-2 kPa) | stability under manufacturing processes [6] | conversion of polymorphic form A into polymorphic form B ([1]; 30 hours in poloxamer based formulation (phosphate buffer, non-ionic tenside), micronized) [%] | conversion of polymorphic form A into polymorphic form B ([1]; 48 hours in poloxamer based formulation, listed as polymorphic A) [%] | level of improvement of the PTS [2] | recovery of the PTS compared to vehicle treated animals ([2]; at 16 kHz) | average PTS (threshold shift) in treated animals [2, 8] [dB] | average PTS reduction versus vehicle-treated controls [2, 8] [dB]
Cn1c2ccc(F)cc2c2ccncc21 [polymorph B, 6-fluoro-9-methyl-9H-β-carboline] | no conversion | no polymorph conversion | 0 | 23-39 dBs | 0.6 | 34.1 | did not reveal conversion into form A | some presence of polymorph A | unchanged polymorph B | unchanged polymorph B | polymorph A is obtained; also recorded: transformation happened of polymorph B into polymorph A | up to a complete conversion | complete conversion into white crystals of polymorph A | stable | – | – | – | – | – | –
Cn1c2ccc(F)cc2c2ccncc21 [polymorph A, 6-fluoro-9-methyl-9H-β-carboline] | – | – | – | – | – | – | – | – | – | – | – | – | – | unstable | 60 | 100 | 10-18 dBs | 10-18 dBs | 14.6 | 7.7
